9 molecules from PubChem BioAssay AID2060512 (Molecular Pharmacology Branch, DTP, NCI, 2025) can be followed below.

The assay concerns 186277-243-T-J2-PDC complex spheroid viability. Description: Anticancer human tumor 186277-243-T-J2-PDC patient-derived colon adenocarcinoma cell line growth inhibition [GQUAD]. To be noted: for viability, T/C: stronger effect = lower value. The source says:
DNA G-quadruplex Stabilizer Agents in Combinations in Complex Spheroids
A high-throughput screen of multi-cell type tumor spheroids was designed to identify active combinations of DNA G-quadruplex stabilizer agents and targeted small molecules. Complex spheroids include a stromal component modeled by human endothelial cells (HUVEC) and fibroblasts modeled by human mesenchymal stem cells (MSCs). The concentration ranges selected for each drug and investigational agent were based upon clinically achievable concentrations if the clinical Cmax of the agent was known.
Compounds. The drugs and investigational agents: pidnarulex (CX-5461; NSC782164), APTO-253 (NSC789042), BRACO-19 (NSC847499), peposertib (NSC802822), ceralasertib (NSC780249), elimusertib (NSC800525), camonsertib (NSC841442), AZD-1390 (NSC803789), olaparib (NSC753686), talazoparib (NSC767125), ART-558 (NSC835418), sotorasib (NSC818433), MRTX-1133 (NSC836407), SN-38 (NSC673596), topotecan (NSC609699), etoposide (NSC141540), doxorubicin (NSC123127), gemcitabine (NSC613327), 5-fluorouracil (NSC19893), paclitaxel (NSC125973), vemurafenib (NSC761431), panobinostat (NSC761190), R-306465 (JNJ-16241199; NSC773264), adavosertib (NSC754352), TP-3654 (NSC805149), carboplatin (NSC241240), KSQ-4279 (NSC840948), and staurosporine (NSC755774) were obtained from the National Cancer Institute (NCI) Developmental Therapeutics Program Chemical Repository (34). The FDA-approved anticancer drug set is available from the NCI Developmental Therapeutics Program. […] The stock solutions were prepared in dimethyl sulfoxide (DMSO, Sigma-Aldrich, St. Louis, MO, cat. D2650) at 800-fold the tested concentration and stored at -70 degrees C prior to their use. All drugs and investigational agents were tested over a range starting from a high concentration at or near the clinical Cmax and decreasing in half-log increments. If the clinical Cmax for an agent had not been determined, the highest concentration tested was 10 microM.
2.3 Cell Culture. All cells were maintained in an incubator at 37 degrees C and 5% CO2 with 95% humidity. The PDC lines were cultured according to standard operating procedures established by the NCI PDMR. All PDCs were thawed and cultured in Matrigel-coated flasks prepared with a working solution of 1X Ham's F-12 nutrient mix, without supplementation (Invitrogen, cat. 11765054), 100 U/mL penicillin-streptomycin (Invitrogen, cat. 15140122), and 2.5% Matrigel (Corning Inc., cat. 354248) for the first three passages. The 857933-349-R-J2-PDC line was cultured in 6C/Colon 1B media, which includes advanced DMEM/F-12 (Thermo Fisher Scientific, cat. 12634028), 10 mM HEPES (Thermo Fisher Scientific, cat. 15630080), 1X GlutaMAX supplement (Thermo Fisher Scientific, cat. 35050061), 0.1 mg/mL primocin (InvivoGen, cat. ant-pm-2), 10% defined fetal bovine serum, heat inactivated (HyClone Laboratories Inc., cat. SH30070.03HI), 50% L-WRN conditioned media (ATCC, cat. CRL-3276), 1.25 mM N-Acetyl-L-cysteine (Sigma-Aldrich, cat. A9165), 10 mM nicotinamide (Sigma-Aldrich, cat. N0636), 1X B-27 supplement (Thermo Fisher Scientific, cat. 17504044), 1X N-2 supplement (Thermo Fisher Scientific, cat. 17502048), 10 microM Y-27632 dihydrochloride (Tocris Bioscience, cat. 1254), and 50 ng/mL human EGF recombinant protein (Thermo Fisher Scientific, cat. PHG0311). The 485176-168-R4-J1-PDC line was cultured in Panc media, which includes all 6C/Colon 1B media components plus 100 ng/mL human FGF-10 (Thermo Fisher Scientific, cat. 100-26), 500 nM SB-431542 (Selleckchem, cat. S1067), and gastrin (Tocris, cat. 3006).
[…]

Molecules are shown by their SMILES. Several values for one entry are separate records, joined by “and”; a condition that tells them apart may be missing. Equal values may be shown once.
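Also: spheroids exposed to drugs for 7 days.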

`Nc1ccn(C2OC(CO)C(O)C2(F)F)c(=O)n1` (stereo not given) + Cc1cnc(CNC(=O)c2c(=O)c3ccc(N4CCCN(C)CC4)nc3n3c2sc2ccccc23)cn1: the IC50 is, setting by setting: (curve of first compound, second compound 0.0316 µM) less than 0.0316 µM; (curve of first compound, second compound 0.1 µM) less than 0.0316 µM; (curve of first compound, second compound 0.316 µM) less than 0.0316 µM; (curve of first compound, second compound 1 µM) less than 0.0316 µM; (curve of first compound, second compound 3.16 µM) less than 0.0316 µM; (curve of first compound, second compound 10 µM) less than 0.0316 µM. The viability, T/C runs as follows: (second compound 0.0316 µM, first compound 0.0316 µM) 21.2%; (second compound 0.0316 µM, first compound 0.1 µM) 13.3%; (second compound 0.0316 µM, first compound 0.316 µM) 12.3%; (second compound 0.0316 µM, first compound 1 µM) 11.9%; (second compound 0.0316 µM, first compound 3.16 µM) 12.2%; (second compound 0.0316 µM, first compound 10 µM) 12.8%. For the same molecule, the viability, T/C reads like this: (second compound 0.1 µM, first compound 0.0316 µM) 27.1%; (second compound 0.1 µM, first compound 0.1 µM) 17.6%; (second compound 0.1 µM, first compound 0.316 µM) 15.3%; (second compound 0.1 µM, first compound 1 µM) 12.9%; (second compound 0.1 µM, first compound 3.16 µM) 15.4%; (second compound 0.1 µM, first compound 10 µM) 15.9%. The viability, T/C reads like this: (second compound 0.316 µM, first compound 0.0316 µM) 36%; (second compound 0.316 µM, first compound 0.1 µM) 28.4%; (second compound 0.316 µM, first compound 0.316 µM) 21.5%; (second compound 0.316 µM, first compound 1 µM) 16.8%; (second compound 0.316 µM, first compound 3.16 µM) 18.6%; (second compound 0.316 µM, first compound 10 µM) 16%. For the same molecule, the viability, T/C is 32.6% (second compound 1 µM, first compound 0.0316 µM); 30.2% (second compound 1 µM, first compound 0.1 µM); 22.8% (second compound 1 µM, first compound 0.316 µM); 21.4% (second compound 1 µM, first compound 1 µM); 19.9% (second compound 1 µM, first compound 3.16 µM); 17.7% (second compound 1 µM, first compound 10 µM). For the same molecule, the viability, T/C by setting is: (second compound 3.16 µM, first compound 0.0316 µM) 33.1%; (second compound 3.16 µM, first compound 0.1 µM) 24.8%; (second compound 3.16 µM, first compound 0.316 µM) 22.6%; (second compound 3.16 µM, first compound 1 µM) 19.5%; (second compound 3.16 µM, first compound 3.16 µM) 19.3%; (second compound 3.16 µM, first compound 10 µM) 16.5%. In addition, the viability, T/C is 34.3% (second compound 10 µM, first compound 0.0316 µM); 25.1% (second compound 10 µM, first compound 0.1 µM); 25.4% (second compound 10 µM, first compound 0.316 µM); 18.7% (second compound 10 µM, first compound 1 µM); 21.4% (second compound 10 µM, first compound 3.16 µM); 19.2% (second compound 10 µM, first compound 10 µM).

Consider `O=C(NO)c1cnc(N2CCN(S(=O)(=O)c3ccc4ccccc4c3)CC2)nc1`, for which the viability, T/C reads like this: (compound 0.0316 µM) 108% and 104% and 95.6%; (compound 0.1 µM) 87.7% and 95.5% and 89.9%; (compound 0.316 µM) 7.49% and 8.52% and 11.5%; (compound 1 µM) 0.33% and 0.31% and 0.48%; (compound 3.16 µM) 0.27% and 0.25% and 0.13%; (compound 10 µM) 0.27% and 0.25% and 0.15%. Where the note is “curve of compound”, the IC50 is 0.172 µM and 0.183 µM and 0.18 µM.

Consider `Cn1ncnc1[C@H]1c2n[nH]c(=O)c3cc(F)cc(c23)N[C@@H]1c1ccc(F)cc1`, for which the viability, T/C is, setting by setting: (compound 0.000999 µM) 99.3% and 96.1% and 115%; (compound 0.00316 µM) 93.5% and 96.6% and 91%; (compound 0.00999 µM) 94.1% and 100% and 98.4%; (compound 0.0316 µM) 111% and 110% and 97.4%; (compound 0.0999 µM) 87.5% and 91.4% and 106%; (compound 0.316 µM) 92.4% and 86.5% and 90.8%. Moreover, for the setting “curve of compound”, the IC50 was greater than 0.316 µM.

In the case of `Nc1ccn(C2OC(CO)C(O)C2(F)F)c(=O)n1` (stereo not given), the viability, T/C was 17% and 8.09% and 31% (compound 0.0316 µM); 11.1% and 8.48% and 13.3% (compound 0.1 µM); 11.3% and 9.27% and 10.2% (compound 0.316 µM); 11.5% and 8.56% and 11.1% (compound 1 µM); 12.8% and 8.21% and 8.72% (compound 3.16 µM); 10.8% and 8.32% and 10.6% (compound 10 µM). Also, the 50% inhibitory concentration (IC50) (curve of compound) was less than 0.0316 µM.

Consider `Cc1cnc(CNC(=O)c2c(=O)c3ccc(N4CCCN(C)CC4)nc3n3c2sc2ccccc23)cn1`, for which the viability, T/C is, setting by setting: (compound 0.0316 µM) 97.7% [middle of 12 runs]; (compound 0.316 µM) 76.8% [middle of 12 runs]; (compound 1 µM) 61.5% [middle of 12 runs]; (compound 3.16 µM) 43.7% [middle of 12 runs]; (compound 10 µM) 39.7% [middle of 12 runs]. Under “compound alone, run of 04/16/2024”, the IC50 was 2.36 µM [middle of 12 runs].

For `C#Cc1c(F)ccc2cc(O)cc(-c3ncc4c(N5CC6CCC(C5)N6)nc(OCC56CCCN5CC(F)C6)nc4c3F)c12` (stereo not given), the viability, T/C by setting is: (compound 0.0316 µM) 99.9% and 94.8% and 64%; (compound 0.1 µM) 59.1% and 30.1% and 46.2%; (compound 0.316 µM) 26% and 13.2% and 19.2%; (compound 1 µM) 14.4% and 7.76% and 10.2%; (compound 3.16 µM) 17.8% and 7.17% and 7.07%; (compound 10 µM) 10.2% and 5.44% and 5.48%. Where the note is “curve of compound”, the concentration for half-maximal inhibition (IC50) was 0.137 µM and 0.0706 µM and 0.0771 µM.

As for `CC1COCCN1c1cc(-c2ccnn2C)c2ccnc(-c3ccn[nH]3)c2n1` (stereo not given), the viability, T/C reads like this: (compound 0.0316 µM) 81.1% and 73.3% and 66.4%; (compound 0.1 µM) 12.5% and 11.9% and 12.3%; (compound 0.316 µM) 7.41% and 7.05% and 7.85%; (compound 1 µM) 5.96% and 5.12% and 5.67%; (compound 3.16 µM) 5.8% and 4.75% and 4.94%; (compound 10 µM) 7.05% and 4.45% and 5.66%. Further, under “curve of compound”, the IC50 is 0.0533 µM and 0.0489 µM and 0.0447 µM.

As to `CN(C)c1ccc(Nc2c3ccc(NC(=O)CCN4CCCC4)cc3nc3cc(NC(=O)CCN4CCCC4)ccc23)cc1`, the viability, T/C is, setting by setting: (compound 0.1 µM) 97.8% [middle of 12 runs]; (compound 0.316 µM) 101% [middle of 12 runs]; (compound 1 µM) 101% [middle of 12 runs]; (compound 10 µM) 99.7% [middle of 12 runs]. Where the note is “compound alone, run of 04/22/2024”, the IC50 is greater than 10 µM.

On to `CC[C@@]1(O)C(=O)OCc2c1cc1n(c2=O)Cc2cc3c(CN(C)C)c(O)ccc3nc2-1`, for which the viability, T/C (compound 0.000999 µM) is 105% and 97.5% and 100%; the viability, T/C (compound 0.00316 µM) was 97.5% and 99.2% and 96.2%; the viability, T/C (compound 0.00999 µM) is 97.4% and 111% and 103%; the viability, T/C (compound 0.0316 µM) was 87.6% and 77.7% and 96.6%; the viability, T/C (compound 0.0999 µM) is 72.4% and 55.3% and 59.9%; the viability, T/C (compound 0.316 µM) is 50.6% and 42.9% and 46.2%. Besides, the IC50 (curve of compound) is > 0.316 µM and 0.104 µM and 0.23 µM.

Usually IC50 stands for the point on the concentration scale where inhibition reaches its midpoint. As usually defined, the viability, T/C is the ratio of treated to control.
